This note sets out measurements from patent US9758538B2, “Pyrimidine derivatives” (PFIZER INC., priority 2015, dated 2017).

SMILES strings stand for the structures. A value given as a limit tells only on which side of the number the result lay.

Usually Ki stands for a dissociation constant, usually derived from enzyme kinetics or from competition with a known ligand.

The target of this test is truncated PI3Kα (p110α/iSH2 p85α), PI3KA_Act (Homo sapiens (Human), UniProt P42336). The test can be described thus: PI3Kα biochemical kinase assay, fluorescence polarization format (PI3KA_Act). The following applies: 0.5 nM p110α/iSH2 p85, 1 mM ATP, 30 μM PIP2, 15-min preincubation; Morrison equation fit; read-out: PI3KA_Act Ki. The procedure: Enzyme Production for Biochemical Assay: p110α-iSH2 p85α Complex (Full Length p110α and p85α iSH2)(“PI3KA Act”)
Sequence of truncated PI3Kα (p110α/iSH2 p85α), PI3KA_Act (P42336 whole entry, the tested form may be a part): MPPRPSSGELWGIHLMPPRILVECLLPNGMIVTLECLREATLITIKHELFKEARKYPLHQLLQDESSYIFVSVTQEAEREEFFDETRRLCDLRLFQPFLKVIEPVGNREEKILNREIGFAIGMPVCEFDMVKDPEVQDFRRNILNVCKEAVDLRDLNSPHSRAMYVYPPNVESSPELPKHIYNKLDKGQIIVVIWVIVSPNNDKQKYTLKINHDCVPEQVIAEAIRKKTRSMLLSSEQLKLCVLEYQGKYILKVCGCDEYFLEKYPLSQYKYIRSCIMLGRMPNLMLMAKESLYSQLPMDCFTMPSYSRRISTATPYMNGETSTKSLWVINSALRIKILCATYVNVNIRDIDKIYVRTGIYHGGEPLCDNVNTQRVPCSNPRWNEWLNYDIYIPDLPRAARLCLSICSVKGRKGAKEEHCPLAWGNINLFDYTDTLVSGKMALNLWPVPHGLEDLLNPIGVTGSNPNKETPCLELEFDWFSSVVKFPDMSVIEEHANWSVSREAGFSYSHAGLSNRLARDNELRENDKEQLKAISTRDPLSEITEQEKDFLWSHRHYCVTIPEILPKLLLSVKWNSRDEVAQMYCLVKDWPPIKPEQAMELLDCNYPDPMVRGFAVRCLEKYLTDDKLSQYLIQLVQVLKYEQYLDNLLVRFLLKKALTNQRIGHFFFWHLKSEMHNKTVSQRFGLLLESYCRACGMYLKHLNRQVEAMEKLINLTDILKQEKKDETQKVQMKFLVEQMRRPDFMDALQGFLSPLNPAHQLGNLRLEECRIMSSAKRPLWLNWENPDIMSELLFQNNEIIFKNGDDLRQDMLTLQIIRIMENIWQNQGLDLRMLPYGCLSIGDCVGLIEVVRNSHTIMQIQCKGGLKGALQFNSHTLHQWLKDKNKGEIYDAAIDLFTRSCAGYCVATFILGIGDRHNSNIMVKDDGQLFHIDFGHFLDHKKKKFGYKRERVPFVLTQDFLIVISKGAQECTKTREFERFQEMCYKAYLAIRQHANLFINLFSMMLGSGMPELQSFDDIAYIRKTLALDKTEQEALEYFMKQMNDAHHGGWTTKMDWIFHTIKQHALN
Gene encoding p110α subunit was subcloned into polyhedrine promoter while gene encoding p85α niSH2 domains was subcloned into p10 promoter. […] Recombinant baculovirus was generated using Bac-to-Bac protocol (Life Technologies, Carlsbad, Calif.). Large scale expression was conducted in Sf21 (Life Technologies, Carlsbad, Calif.) cells at a multiplicity of infection (“MOI”)=1 for 48 hours. Cells were lyzed in 50 mM Tris pH 8.0, 250 mM NaCl, 5% glycerol, 0.25 mM TCEP, and 20 mM imidazole. The p110α-niSH2 p85α complex was purified from clarified supernatant using Immobilized Metalo Affinity Chromatography (“IMAC”). The protein was eluted from the column using 50 mM Tris pH 8.0, 200 mM NaCl, 0.25 mM TCEP, and 200 mM imidazole. Following elution p110α-niSH2 p85α complex was dialyzed against 4 liters of 50 mM Tris pH 8.0, 200 mM NaCl, 0.25 mM TCEP, and 40 mM imidazole in the presence of PreScission Protease (1:70 molar ratio of Protease to Protein) and TEV protease (1:40 molar ratio protease to protein) for 16 hours at 4° C. The protein was further purified using reverse IMAC to remove cleaved histidine tag and contaminants captured during initial IMAC purification. The mixture of p110α-iSH2 p85α complex and cleaved nSH2 was recovered in reverse IMAC 40 mM imidazole flow through and 60 mM imidazole wash fractions. Those fractions were pulled together and loaded on Superdex 200 26/60 SEC column equilibrated in 25 mM Tris, pH 8.0, 100 mM NaCl, 2% glycerol, and 2 mM TCEP.
The enzymatic reactions were conducted in 50 μL volumes in 96-well plates. […] The reactions were incubated for 30 min at room temperature, stopped with EDTA pH 8 (10 mM final concentration). […] The plate was shaken for 30 minutes and fluorescence polarization values were measured on an LJL Analyst HT plate reader (Molecular Devices, Sunnyvale, Calif.).
Take `CC(C)OC(=O)N1CC[C@](CO)(Nc2nc(N3CCOCC3)nc(-c3cnc(N)nc3)c2F)C1` [Example 70, propan-2-yl (3S)-3-{[2′-amino-5-fluoro-2-(morpholin-4-yl)-4,5′-bipyrimidin-6-yl]amino}-3-(hydroxymethyl)pyrrolidine-1-carboxylate]: the inhibitory constant (Ki) came out at 0.031 nM.

Consider `C[C@H]1COCCN1c1nc(N[C@]2(C)CCN(C(=O)OC(C)(C)C)C2)cc(-c2cnc(N)nc2)n1` [Example 15, tert-butyl (3R)-3-({2′-amino-2-[(3S)-3-methylmorpholin-4-yl]-4,5′-bipyrimidin-6-yl}amino)-3-methylpyrrolidine-1-carboxylate], for which the Ki is 0.979 nM.

On to `Nc1ncc(-c2cc(N[C@@]3(CO)CCN(CC4CC4)C3)nc(N3CCOCC3)n2)cn1` [Example 71, [(3S)-3-{[2′-amino-2-(morpholin-4-yl)-4,5′-bipyrimidin-6-yl]amino}-1-(cyclopropylmethyl)pyrrolidin-3-yl]methanol], for which the inhibition constant Ki is 9.47 nM.

For the compound `Nc1ncc(-c2nc(N3CCOCC3)nc(N[C@]3(CO)CCCN(C(=O)C4(F)CC4)C3)c2F)cn1` (single isomer, unassigned) [Example 158], the Ki turned out to be 0.627 nM. Take `CC[C@@]1(Nc2cc(-c3cnc(N)nc3)nc(N3CCOCC3)n2)CCN(C(=O)OC(C)(C)C)C1` [Example 37, tert-butyl (3R)-3-{[2′-amino-2-(morpholin-4-yl)-4,5′-bipyrimidin-6-yl]amino}-3-ethylpyrrolidine-1-carboxylate]: the Ki was determined as 0.725 nM. The figure for `Nc1ncc(-c2nc(N[C@@]3(CO)CCN(C(=O)OCC(F)F)C3)nc(N3CCOCC3)n2)cn1` [Example 99, 2,2-difluoroethyl (3S)-3-{[4-(2-aminopyrimidin-5-yl)-6-(morpholin-4-yl)-1,3,5-triazin-2-yl]amino}-3-(hydroxymethyl)pyrrolidine-1-carboxylate] is 0.027 nM; for `Nc1ncc(-c2nc(N3CCOCC3)nc(N[C@@]3(CO)CCCN(C(=O)C4CC4)C3)c2F)cn1` [Example 156, [(3S)-3-{[2′-amino-5-fluoro-2-(morpholin-4-yl)-4,5′-bipyrimidin-6-yl]amino}-3-(hydroxymethyl)piperidin-1-yl](cyclopropyl)methanone] it is 0.454 nM. Take `CC(C)(C)NC(=O)N1CC[C@](CO)(Nc2cc(-c3cnc(N)nc3)nc(N3CCOCC3)n2)C1` [Example 48, (3S)-3-{[2′-amino-2-(morpholin-4-yl)-4,5′-bipyrimidin-6-yl]amino}-N-tert-butyl-3-(hydroxymethyl)pyrrolidine-1-carboxamide]: the Ki stood at 0.714 nM. The figure for `Nc1ncc(-c2nc(N3CCOCC3)nc(N[C@@]3(CO)CCNC3)c2F)cn1` [Example 137, [(3S)-3-{[2′-amino-5-fluoro-2-(morpholin-4-yl)-4,5′-bipyrimidin-6-yl]amino}pyrrolidin-3-yl]methanol] is 48.7 nM; for `Nc1ncc(-c2nc(N[C@@]3(CO)CCN(C(=O)OC4CC4)C3)nc(N3CCOCC3)n2)cn1` [Example 103, cyclopropyl (3S)-3-{[4-(2-aminopyrimidin-5-yl)-6-(morpholin-4-yl)-1,3,5-triazin-2-yl]amino}-3-(hydroxymethyl)pyrrolidine-1-carboxylate] it is 0.107 nM; for `Nc1ncc(-c2nc(N3CCOCC3)nc(N[C@@]3(CO)CCN(C(=O)OCCF)C3)c2F)cn1` [Example 139, 2-fluoroethyl (3S)-3-{[2′-amino-5-fluoro-2-(morpholin-4-yl)-4,5′-bipyrimidin-6-yl]amino}-3-(hydroxymethyl)pyrrolidine-1-carboxylate] it is less than 0.018 nM. As for `CCCOC(=O)N1CC[C@](CO)(Nc2cc(-c3cnc(N)nc3)nc(N3CCOCC3)n2)C1` [Example 77, propyl (3S)-3-{[2′-amino-2-(morpholin-4-yl)-4,5′-bipyrimidin-6-yl]amino}-3-(hydroxymethyl)pyrrolidine-1-carboxylate], the Ki is less than 0.018 nM. `COC(=O)N1CCCC(CO)(Nc2cc(-c3cnc(N)nc3)nc(N3CCOCC3)n2)C1` (racemic) [Example 4, methyl 3-{[2′-amino-2-(morpholin-4-yl)-4,5′-bipyrimidin-6-yl]amino}-3-(hydroxymethyl)piperidine-1-carboxylate]: the Ki is 0.03 nM. The same measure for `CC(C)(C)CC(=O)N1CC[C@](CO)(Nc2cc(-c3cnc(N)nc3)nc(N3CCOCC3)n2)C1` [Example 61, 1-[(3S)-3-{[2′-amino-2-(morpholin-4-yl)-4,5′-bipyrimidin-6-yl]amino}-3-(hydroxymethyl)pyrrolidin-1-yl]-3,3-dimethylbutan-1-one]: 0.054 nM; for `Nc1ncc(-c2cc(N[C@@]3(CO)CCN(C4CCCNC4=O)C3)nc(N3CCOCC3)n2)cn1` (stereo partly drawn) [Example 88, 3-[(3S)-3-{[2′-amino-2-(morpholin-4-yl)-4,5′-bipyrimidin-6-yl]amino}-3-(hydroxymethyl)pyrrolidin-1-yl]piperidin-2-one]: 0.682 nM. On to `CC(=O)N1CC[C@@](CO)(Nc2cc(-c3cnc(N)nc3)nc(N3CCOCC3)n2)C1` [Example 31, 1-[(3R)-3-{[2′-amino-2-(morpholin-4-yl)-4,5′-bipyrimidin-6-yl]amino}-3-(hydroxymethyl)pyrrolidin-1-yl]ethanone], for which the Ki was determined as 2.13 nM.

As to `COCC(=O)N1CCC[C@@](CO)(Nc2nc(N3CCOCC3)nc(-c3cnc(N)nc3)c2F)C1` [Example 151, 1-[(3R)-3-{[2′-amino-5-fluoro-2-(morpholin-4-yl)-4,5′-bipyrimidin-6-yl]amino}-3-(hydroxymethyl)piperidin-1-yl]-2-methoxyethanone], the Ki was 1.82 nM. With `C[C@H]1COCCN1c1nc(N[C@@]2(CO)CCNC2)c(F)c(-c2cnc(N)nc2)n1` [Example 112, [(3S)-3-({2′-amino-5-fluoro-2-[(3S)-3-methylmorpholin-4-yl]-4,5′-bipyrimidin-6-yl}amino)pyrrolidin-3-yl]methanol], the Ki was 1.01 nM.

As to `CC1(OC(=O)N2CC[C@](CO)(Nc3cc(-c4cnc(N)nc4)nc(N4CCOCC4)n3)C2)CC1` [Example 47, 1-methylcyclopropyl (3S)-3-{[2′-amino-2-(morpholin-4-yl)-4,5′-bipyrimidin-6-yl]amino}-3-(hydroxymethyl)pyrrolidine-1-carboxylate], the Ki is 0.025 nM. The figure for `CCOC(=O)N1CC[C@](CO)(Nc2nc(-c3cnc(N)nc3)nc(N3CCOCC3)n2)C1` [Example 82, ethyl (3S)-3-{[4-(2-aminopyrimidin-5-yl)-6-(morpholin-4-yl)-1,3,5-triazin-2-yl]amino}-3-(hydroxymethyl)pyrrolidine-1-carboxylate] is 0.027 nM. The same measure for `CC(C)(C)OC(=O)N1CC(CO)(Nc2cc(-c3cnc(N)nc3)nc(N3CCOCC3)n2)C1` [Example 41, tert-butyl 3-{[2′-amino-2-(morpholin-4-yl)-4,5′-bipyrimidin-6-yl]amino}-3-(hydroxymethyl)azetidine-1-carboxylate]: 0.128 nM; for `CC(C)[C@H](N)C(=O)N1CC[C@](CO)(Nc2cc(-c3cnc(N)nc3)nc(N3CCOCC3)n2)C1` [Example 51, (2S)-2-amino-1-[(3S)-3-{[2′-amino-2-(morpholin-4-yl)-4,5′-bipyrimidin-6-yl]amino}-3-(hydroxymethyl)pyrrolidin-1-yl]-3-methylbutan-1-one]: 0.619 nM; for `C[C@H]1COCCN1c1nc(N[C@@]2(CO)CCN(C(=O)OC3CC3)C2)cc(-c2cnc(N)nc2)n1` [Example 102, cyclopropyl (3S)-3-({2′-amino-2-[(3S)-3-methylmorpholin-4-yl]-4,5′-bipyrimidin-6-yl}amino)-3-(hydroxymethyl)pyrrolidine-1-carboxylate]: less than 0.018 nM.

For `CC(C)(C)OC(=O)N1CCC(CO)(Oc2cc(-c3cnc(N)nc3)nc(N3CCOCC3)n2)C1` (racemic) [Example 7, tert-butyl 3-{[2′-amino-2-(morpholin-4-yl)-4,5′-bipyrimidin-6-yl]oxy}-3-(hydroxymethyl)pyrrolidine-1-carboxylate], the Ki was determined as 0.058 nM. With `CS(=O)(=O)N1CC[C@](CO)(Nc2cc(-c3cnc(N)nc3)nc(N3CCOCC3)n2)C1` [Example 33, [(3S)-3-{[2′-amino-2-(morpholin-4-yl)-4,5′-bipyrimidin-6-yl]amino}-1-(methylsulfonyl)pyrrolidin-3-yl]methanol], the Ki was 0.3 nM. With `Nc1ncc(-c2nc(N3CCOCC3)nc(N[C@@]3(CO)CCN(C(=O)C4(F)CCC4)C3)c2F)cn1` [Example 115, [(3S)-3-{[2′-amino-5-fluoro-2-(morpholin-4-yl)-4,5′-bipyrimidin-6-yl]amino}-3-(hydroxymethyl)pyrrolidin-1-yl](1-fluorocyclobutyl)methanone], the Ki is 0.036 nM.
